In patent US6914045B2, “Glycopeptide antibiotics” (Wyeth Holdings Corporation, priority 2001, dated 2005):
≈ marks a conversion by molar mass, not a printed value.

Key:
Assay in all cases: in vitro antibacterial evaluation, MIC by broth dilution
Assay type in all cases: cell-based
Staphylococcus sp. = conditions: broth dilution, 18 hours at 35° C.; for MIC Staphylococcus aureus (GC 1131): strain GC 1131
How it was run: (§1)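 MIC = lowest antibiotic concentration preventing visible growth; inoculum 5×10^5 CFU/mL; drug range 64-0.06 μg/mL; Muller-Hinton II […]; NCCLS M7-A2 guidance.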

Escherichia coli = test system: Escherichia coli
How it was run: as §1

Enterococcus sp. = conditions: broth dilution, 18 hours at 35° C.; for MIC Enterococcus faecalis (ATCC 29212): strain ATCC 29212; for MIC Enterococcus faecalis (GC 2242): strain GC 2242; for MIC Enterococcus faecium (GC 2243): strain GC 2243; for MIC Enterococcus faecalis (GC 2691): strain GC 2691; for MIC Enterococcus faecalis (GC 3059): strain GC 3059; for MIC Enterococcus faecalis (GC 4552): strain GC 4552; for MIC Enterococcus faecalis (GC 4553): strain GC 4553; for MIC Enterococcus faecalis (GC 4554): strain GC 4554; for MIC Enterococcus faecium (GC 4556): strain GC 4556; for MIC Enterococcus faecium (GC 4557): strain GC 4557; for MIC Enterococcus avium (GC 4558): strain GC 4558; for MIC Enterococcus faecalis (GC 6189): strain GC 6189
How it was run: as §1

Streptococcus sp. = conditions: broth dilution, 18 hours at 35° C.; for MIC Streptococcus pneumoniae (ATCC 6301): strain ATCC 6301; for MIC Streptococcus pneumoniae (GC 1894): strain GC 1894; for MIC Streptococcus pyogenes (GC 4563): strain GC 4563; for MIC Streptococcus agalactiae (GC 4564): strain GC 4564; for MIC Streptococcus pneumoniae (GC 4565): strain GC 4565
How it was run: as §1

SMILES: CC(C)=CCCC(C)=CCOc1ccc(C2OCC3OC(OC4C(CO)OC(Oc5ccc(CC6NC(=O)C(C(C)c7ccccc7)NC(=O)CNC(=O)C(CO)NC(=O)C(C(O)C7CNC(=N)N7C7OC(CO)C(O)C(O)C7O)NC(=O)C(C(O)C7CNC(=N)N7)NC6=O)cc5)C(O)C4O)C(O)C(O)C3O2)cc1 (centres unmarked) [Example 183]
- MIC Staphylococcus aureus (GC 1131) (Staphylococcus sp.; inoculum 5×10^5 CFU/mL): 8 µg/mL (≈ 5.21 µM)
- MIC Staphylococcus aureus (ATCC 29213) (Staphylococcus sp.; strain ATCC 29213): 4 µg/mL (≈ 2.6 µM)
- MIC Staphylococcus aureus (GC 1131) (Staphylococcus sp.): 8 µg/mL (≈ 5.21 µM)
- MIC Staphylococcus aureus (GC 3051) (Staphylococcus sp.; strain GC 3051): 2 µg/mL (≈ 1.3 µM)
- MIC Staphylococcus aureus (GC 3053) (Staphylococcus sp.; strain GC 3053): 2 µg/mL (≈ 1.3 µM)
- MIC Staphylococcus aureus (GC 4541) (Staphylococcus sp.; strain GC 4541): 8 µg/mL (≈ 5.21 µM)
- MIC Staphylococcus aureus (GC 4542) (Staphylococcus sp.; strain GC 4542): 4 µg/mL (≈ 2.6 µM)
- MIC Staphylococcus aureus (GC 4544) (Staphylococcus sp.; strain GC 4544): 4 µg/mL (≈ 2.6 µM)
- MIC Staphylococcus aureus (GC 4545) (Staphylococcus sp.; strain GC 4545): 4 µg/mL (≈ 2.6 µM)
- MIC Staphylococcus aureus-SMITH (GC 4543) (Staphylococcus sp.; strain GC 4543): 4 µg/mL (≈ 2.6 µM)
- MIC Staphylococcus haemolyticus (GC 4546) (Staphylococcus sp.; strain GC 4546): 8 µg/mL (≈ 5.21 µM)
- MIC Coagulase Negative Staphylococcus (GC 4547) (Staphylococcus sp.; strain GC 4547): 4 µg/mL (≈ 2.6 µM)
- MIC Coagulase Negative Staphylococcus (GC 4548) (Staphylococcus sp.; strain GC 4548): 2 µg/mL (≈ 1.3 µM)
- MIC Coagulase Negative Staphylococcus (GC 4549) (Staphylococcus sp.; strain GC 4549): 4 µg/mL (≈ 2.6 µM)
- MIC Coagulase Negative Staphylococcus (GC 4551) (Staphylococcus sp.; strain GC 4551): 4 µg/mL (≈ 2.6 µM)
- MIC Coagulase Negative Staphylococcus (GC 6257) (Staphylococcus sp.; strain GC 6257): 2 µg/mL (≈ 1.3 µM)
- MIC Escherichia coli (ATCC 25922) (Escherichia coli; strain ATCC 25922, 18 hours at 35° C.): >64 µg/mL
- MIC Escherichia coli (GC 4559) (Escherichia coli; strain GC 4559, 18 hours at 35° C.): >64 µg/mL
- MIC Escherichia coli (GC 4560) (Escherichia coli; strain GC 4560, 18 hours at 35° C.): 4 µg/mL (≈ 2.6 µM)
- MIC Enterococcus faecalis (ATCC 29212) (Enterococcus sp.; inoculum 5×10^5 CFU/mL): 8 µg/mL (≈ 5.21 µM)
- MIC Enterococcus faecalis (GC 2242) (Enterococcus sp.; inoculum 5×10^5 CFU/mL): 8 µg/mL (≈ 5.21 µM)
- MIC Enterococcus faecium (GC 2243) (Enterococcus sp.; inoculum 5×10^5 CFU/mL): 2 µg/mL (≈ 1.3 µM)
- MIC Enterococcus faecalis (GC 2691) (Enterococcus sp.; inoculum 5×10^5 CFU/mL): 2 µg/mL (≈ 1.3 µM)
- MIC Enterococcus faecalis (GC 3059) (Enterococcus sp.; inoculum 5×10^5 CFU/mL): 4 µg/mL (≈ 2.6 µM)
- MIC Enterococcus faecalis (GC 4552) (Enterococcus sp.; inoculum 5×10^5 CFU/mL): 8 µg/mL (≈ 5.21 µM)
- MIC Enterococcus faecalis (GC 4553) (Enterococcus sp.; inoculum 5×10^5 CFU/mL): 4 µg/mL (≈ 2.6 µM)
- MIC Enterococcus faecalis (GC 4554) (Enterococcus sp.; inoculum 5×10^5 CFU/mL): 4 µg/mL (≈ 2.6 µM)
- MIC Enterococcus faecium (GC 4556) (Enterococcus sp.; inoculum 5×10^5 CFU/mL): 8 µg/mL (≈ 5.21 µM)
- MIC Enterococcus faecium (GC 4557) (Enterococcus sp.; inoculum 5×10^5 CFU/mL): 4 µg/mL (≈ 2.6 µM)
- MIC Enterococcus avium (GC 4558) (Enterococcus sp.; inoculum 5×10^5 CFU/mL): 2 µg/mL (≈ 1.3 µM)
- MIC Enterococcus faecalis (GC 6189) (Enterococcus sp.; inoculum 5×10^5 CFU/mL): 2 µg/mL (≈ 1.3 µM)
- MIC Enterococcus faecalis (ATCC 29212) (Enterococcus sp.): 8 µg/mL (≈ 5.21 µM)
- MIC Enterococcus faecalis (GC 2242) (Enterococcus sp.): 8 µg/mL (≈ 5.21 µM)
- MIC Enterococcus faecium (GC 2243) (Enterococcus sp.): 2 µg/mL (≈ 1.3 µM)
- MIC Enterococcus faecalis (GC 2691) (Enterococcus sp.): 2 µg/mL (≈ 1.3 µM)
- MIC Enterococcus faecalis (GC 3059) (Enterococcus sp.): 4 µg/mL (≈ 2.6 µM)
- MIC Enterococcus faecalis (GC 4552) (Enterococcus sp.): 8 µg/mL (≈ 5.21 µM)
- MIC Enterococcus faecalis (GC 4553) (Enterococcus sp.): 4 µg/mL (≈ 2.6 µM)
- MIC Enterococcus faecalis (GC 4554) (Enterococcus sp.): 4 µg/mL (≈ 2.6 µM)
- MIC Enterococcus faecium (GC 4556) (Enterococcus sp.): 8 µg/mL (≈ 5.21 µM)
- MIC Enterococcus faecium (GC 4557) (Enterococcus sp.): 4 µg/mL (≈ 2.6 µM)
- MIC Enterococcus avium (GC 4558) (Enterococcus sp.): 2 µg/mL (≈ 1.3 µM)
- MIC Enterococcus faecalis (GC 6189) (Enterococcus sp.): 2 µg/mL (≈ 1.3 µM)
- MIC Streptococcus pneumoniae (ATCC 6301) (Streptococcus sp.; inoculum 5×10^5 CFU/mL): <0.06 µg/mL
- MIC Streptococcus pneumoniae (GC 1894) (Streptococcus sp.; inoculum 5×10^5 CFU/mL): <0.06 µg/mL
- MIC Streptococcus pyogenes (GC 4563) (Streptococcus sp.; inoculum 5×10^5 CFU/mL): <0.06 µg/mL
- MIC Streptococcus agalactiae (GC 4564) (Streptococcus sp.; inoculum 5×10^5 CFU/mL): <0.06 µg/mL
- MIC Streptococcus pneumoniae (GC 4565) (Streptococcus sp.; inoculum 5×10^5 CFU/mL): <0.06 µg/mL
- MIC Streptococcus pneumoniae (ATCC 6301) (Streptococcus sp.): <0.06 µg/mL
- MIC Streptococcus pneumoniae (GC 1894) (Streptococcus sp.): <0.06 µg/mL
- MIC Streptococcus pyogenes (GC 4563) (Streptococcus sp.): <0.06 µg/mL
- MIC Streptococcus agalactiae (GC 4564) (Streptococcus sp.): <0.06 µg/mL
- MIC Streptococcus pneumoniae (GC 4565) (Streptococcus sp.): <0.06 µg/mL
